# Reference: ChEMBL document CHEMBL5356942, “MEK inhibitors in cancer treatment: structural insights, regulation, recent advances and future perspectives” (RSC Med Chem, 2023)
# What was measured:
# [1] = test system: Enterovirus A71; assay: Antiviral activity against human EV71 infected in HEK293 cells assessed as reduction in viral replication at MOI of 1 incubated for 48 hrs by luciferase assay; assay type: functional, organism-based; conditions: Enterovirus A, HEK293, 48 h
# [2] = Therapeutic index, ratio of CC50 for RD cells to EC50 for antiviral activity against human EV71 infected in RD cells; assay type: functional
# [3] = test system: HEK293; assay: Cytotoxicity against HEK293 cells assessed as reduction in cell viability measured after 66 hrs by MTT assay; assay type: functional; conditions: Homo sapiens
# [4] = Therapeutic index, ratio of CC50 for HEK293 cells to EC50 for antiviral activity against human EV71 infected in HEK293 cells; assay type: functional
# [5] = test system: Enterovirus A71; assay: Antiviral activity against human Enterovirus 71 BrCr infected in human RD cells assessed as reduction of virus induced cytopathic effect incubated for 48 hrs by MTS assay; assay type: functional, organism-based; conditions: Enterovirus A
# [6] = test system: RD; assay: Cytotoxicity against human RD cells assessed as reduction in cell viability incubated for 72 hrs by MTT assay; assay type: functional
# [7] = target: Mitogen-activated protein kinase 1 (Homo sapiens, UniProt P28482); assay: Inhibition of ERK2 phosphorylation in human A375 cells
# [8] = test system: HT-29; assay: Cytotoxicity against human HT-29 cells assessed as reduction in cell viability incubated for 24 hrs in dark by MTT assay; assay type: functional, cell-based; conditions: HT-29, 24 h
# [9] = test system: B16; assay: Cytotoxicity against mouse B16 cells assessed as reduction in cell viability incubated for 24 hrs by MTT assay; assay type: functional, cell-based; conditions: B16, 24 h
# [10] = test system: MCF7; assay: Cytotoxicity against human MCF7 cells assessed as reduction in cell viability incubated for 24 hrs by MTT assay; assay type: functional, cell-based; conditions: MCF7, 24 h
# [11] = test system: Hep 3B2; assay: Cytotoxicity against human Hep3B cells assessed as reduction in cell viability incubated for 48 hrs by MTT assay; assay type: functional, cell-based
# [12] = test system: SMMC-7721; assay: Cytotoxicity against human SMMC-7721 cells assessed as reduction in cell growth incubated for 48 hrs by MTT assay; assay type: functional, cell-based; conditions: SMMC-7721, 48 h
# [13] = Cytotoxicity against human QSG7701 cells assessed as inhibition of cell growth incubated for 48 hrs by MTT assay; assay type: functional, cell-based; conditions: QSG7701, 48 h
# [14] = test system: COLO 205; assay: Antiproliferative activity against human COLO 205 cells assessed as reduction in cell proliferation incubated for 24 hrs byMTS assay; assay type: functional, cell-based; conditions: COLO 205, 24 h
# [15] = test system: A-431; assay: Antiproliferative activity against human A-431 cells assessed as reduction in cell proliferation incubated for 24 hrs by MTT assay; assay type: functional, cell-based; conditions: A-431, 24 h
# [16] = test system: Calu-6; assay: Antiproliferative activity against human Calu-6 cells assessed as reduction in cell growth incubated for 24 hrs by MTT assay; assay type: functional, cell-based; conditions: Calu-6, 24 h
# [17] = test system: A-375; assay: Antiproliferative activity against human A375 cells assessed as reduction in cell growth incubated for 24 hrs by MTT assay; assay type: functional, cell-based; conditions: A-375, 24 h
# [18] = test system: HT-29; assay: Antiproliferative activity against human HT-29 cells assessed as reduction in cell growth incubated for 24 hrs by MTT assay; assay type: functional, cell-based; conditions: HT-29, 24 h
# [19] = Oral bioavailability in ICR mouse at 3 mg/kg measured after 24 hrs by LC-MS/MS analysis; assay type: ADME, organism-based; conditions: in vivo
# [20] = AUC (0 to t) in ICR mouse at 3 mg/kg, po administered via gavage measured after 24 hrs by LC-MS/MS analysis; assay type: ADME, organism-based; design: time 24 hrs, dose 3 mg/kg, route po; conditions: in vivo
# [21] = test system: MDA-MB-231; assay: Cytotoxicity against human MDA-MB-231 cells assessed as reduction in cell viability incubated for 72 hrs by MTT assay; assay type: functional, cell-based; conditions: MDA-MB-231, 72 h
# [22] = Cytotoxicity against human QSG7701 cells assessed as inhibition of cell growth incubated for 72 hrs by MTT assay; assay type: functional, cell-based; conditions: QSG7701, 72 h
# [23] = test system: HeLa; assay: Cytotoxicity against human HeLa cells assessed as reduction in cell viability incubated for 72 hrs by MTT assay; assay type: functional, cell-based
# [24] = test system: SMMC-7721; assay: Cytotoxicity against human SMMC-7721 cells assessed as reduction in cell viability incubated for 72 hrs by MTT assay; assay type: functional, cell-based; conditions: SMMC-7721, 72 h
# [25] = Inhibition of ERK phosphorylation in human A-431 cells at 1 to 10 uM incubated for 24 hrs by Western blot analysis; assay type: cell-based; conditions: A-431, 24 h
# Chain of Mitogen-activated protein kinase 1 (P28482 whole entry): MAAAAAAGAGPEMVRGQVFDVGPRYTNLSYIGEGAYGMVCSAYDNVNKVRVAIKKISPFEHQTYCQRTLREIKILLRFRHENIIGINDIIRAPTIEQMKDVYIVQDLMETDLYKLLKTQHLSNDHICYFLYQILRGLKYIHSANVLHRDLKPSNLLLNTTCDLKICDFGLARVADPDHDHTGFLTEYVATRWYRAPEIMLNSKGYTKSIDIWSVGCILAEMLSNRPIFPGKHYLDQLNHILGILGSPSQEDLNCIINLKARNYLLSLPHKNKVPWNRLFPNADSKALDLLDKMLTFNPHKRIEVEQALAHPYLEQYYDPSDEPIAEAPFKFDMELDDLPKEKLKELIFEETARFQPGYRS
structure (smiles),measurement,setting,value
CCc1c(Cc2ccc(F)cc2)c(=O)oc2cc(OC(=O)N(C)C)ccc12,EC50,[1],19.4 µM
same,Ratio CC50/EC50,[2],7.29
same,CC50,[3],65.3 µM
same,Ratio CC50/EC50,[4],3.37
same,EC50,[5],10 µM
same,CC50,[6],72.9 µM
CC(=O)COC[C@H](O)CONC(=O)c1ccc(F)c(F)c1Nc1ccc(F)cc1F,IC50,[7],0.018 µM
N#Cc1c(-c2ccccc2Br)c(N2CCOCC2)n(-c2ccc(Cl)cc2Cl)c1N,IC50,[8],1.47 µM
same,IC50,[9],4.61 µM
same,IC50,[10],1.35 µM
CCOc1ccc2c(c1)c1c(n2CCN2CCNCC2)-c2cc(C(C)C)ccc2[C@@]2(C)CCC[C@@](C)(C(=O)OC)C12 (stereo not given in full),IC50,[11],0.73 µM
same,IC50,[12],1.39 µM
same,IC50,[13],12.5 µM
O=C(NOCCO)c1cc2ocnc2c(F)c1Nc1ccc(F)cc1F,IC50,[14],0.0057 µM
same,IC50,[15],> 3 µM
same,IC50,[16],0.169 µM
same,IC50,[17],0.0043 µM
same,IC50,[18],0.0029 µM
Cc1cc(I)ccc1Nc1c(C(=O)NOCCO)cc2ocnc2c1F,bioavailability,[19],28%
same,AUCt,[20],337 ng·h/mL
CC(=O)NNC(=O)[C@]12CC[C@@H](C)[C@H](C)C1C1=CCC3[C@@]4(C)Cc5cc6cc(Cl)ccc6cc5C(C)(C)C4CC[C@@]3(C)[C@]1(C)CC2 (stereo not given in full),IC50,[21],0.12 µM
same,IC50,[22],10.8 µM
same,IC50,[23],0.08 µM
same,IC50,[24],0.34 µM
Cn1c(=O)c(F)c(Nc2ccc(I)cc2F)c2c(=O)n(C[C@@H](O)CO)cnc21 [TAK-733],EC50,[25],0.00019 µM
